Reference: PubChem BioAssay (NCI)
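Results reflect a 48-hour exposure of cells in 96-well plates to compound at five concentrations. GI50: concentration for 50% inhibition of growth. TGI denotes the concentration required for complete inhibition of growth.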

Tests used:
Assay in all cases: NCI anticancer screen, dose series, 48 h
[1] = system: NCI-H23 lung
[2] = system: SNB-19 CNS
[3] = system: PC-3 prostate
[4] = system: MCF7 breast
[5] = system: TK-10 renal
[6] = system: NCI-H522 lung
[7] = system: NCI/ADR-RES ovarian
[8] = system: HOP-62 NSCLC
[9] = system: LOX IMVI melanoma
[10] = system: SK-MEL-2 melanoma
[11] = system: OVCAR-5 ovarian
[12] = system: HL-60(TB) leukemia
[13] = system: K-562 leukemia
[14] = system: DU-145 prostate
[15] = system: OVCAR-8 ovarian
[16] = system: HCT-15 colon
[17] = system: BT-549 breast
[18] = system: EKVX NSCLC
[19] = system: HT29 colon
[20] = system: CCRF-CEM leukemia
[21] = system: SF-539 CNS
[22] = system: SW-620 colon
[23] = system: M14 melanoma
[24] = system: T-47D breast
[25] = system: NCI-H460 lung
[26] = system: MOLT-4 leukemia
[27] = system: MALME-3M melanoma
[28] = system: CAKI-1 renal
[29] = system: UACC-257 melanoma
[30] = system: SK-MEL-28 melanoma
[31] = system: SR leukemia
[32] = system: HOP-92 NSCLC
[33] = system: U251 CNS
[34] = system: OVCAR-4 ovarian
[35] = system: UO-31 renal
[36] = system: SNB-75 CNS
[37] = system: SN12C renal
[38] = system: 786-0 renal
[39] = system: A498 renal
[40] = system: SK-OV-3 ovarian
[41] = system: OVCAR-3 ovarian
[42] = system: HS 578T breast
[43] = system: IGROV1 ovarian
[44] = system: RXF 393 renal
[45] = system: NCI-H226 lung
[46] = system: SF-295 CNS
[47] = system: ACHN renal
[48] = system: MDA-MB-231 breast
[49] = system: HCC-2998 colon
[50] = system: SK-MEL-5 melanoma
[51] = system: KM12 colon
[52] = system: COLO 205 colon
[53] = system: UACC-62 melanoma
[54] = system: A549 NSCLC
[55] = system: MDA-MB-435
[56] = system: HCT-116 colon
[57] = system: SF-268 CNS

Structure (SMILES): Nc1c(C(=O)Nc2ccccc2F)sc2nc3c(cc12)C(=O)CCC3
- GI50 [1]: 2.04 µM
- TGI [1]: > 100 µM
- GI50 [2]: 2.6 µM
- TGI [2]: > 100 µM
- GI50 [3]: 0.959 µM
- TGI [3]: > 100 µM
- GI50 [4]: 0.499 µM
- TGI [4]: > 100 µM
- GI50 [5]: 4.3 µM
- TGI [5]: > 100 µM
- GI50 [6]: 0.476 µM
- TGI [6]: 3.9 µM
- GI50 [7]: 0.509 µM
- TGI [7]: 5.09 µM
- GI50 [8]: 4.12 µM
- TGI [8]: > 100 µM
- GI50 [9]: 8.58 µM
- TGI [9]: > 100 µM
- GI50 [10]: 0.683 µM
- TGI [10]: > 100 µM
- GI50 [11]: 4.05 µM
- TGI [11]: > 100 µM
- GI50 [12]: 2.4 µM
- TGI [12]: > 100 µM
- GI50 [13]: 0.553 µM
- TGI [13]: > 100 µM
- GI50 [14]: 1.81 µM
- TGI [14]: > 28.6 µM
- GI50 [15]: 13.8 µM
- TGI [15]: > 100 µM
- GI50 [16]: 0.642 µM
- TGI [16]: > 100 µM
- TGI [17]: > 52.5 µM
- TGI [18]: > 100 µM
- GI50 [19]: 0.531 µM
- TGI [19]: > 100 µM
- GI50 [20]: 3.46 µM
- TGI [20]: > 100 µM
- GI50 [21]: 0.817 µM
- TGI [21]: > 22.2 µM
- GI50 [22]: 0.721 µM
- TGI [22]: > 100 µM
- GI50 [23]: 0.645 µM
- TGI [23]: > 100 µM
- GI50 [24]: 6.79 µM
- TGI [24]: > 100 µM
- GI50 [25]: 0.541 µM
- TGI [25]: > 63.1 µM
- GI50 [26]: > 100 µM
- TGI [26]: > 100 µM
- GI50 [27]: 1.44 µM
- TGI [27]: > 100 µM
- GI50 [28]: 1.76 µM
- TGI [28]: > 100 µM
- GI50 [29]: > 100 µM
- TGI [29]: > 100 µM
- GI50 [30]: 6.33 µM
- TGI [30]: > 100 µM
- GI50 [31]: 1.68 µM
- TGI [31]: > 100 µM
- GI50 [32]: 0.121 µM
- TGI [32]: > 100 µM
- GI50 [33]: 1.23 µM
- TGI [33]: > 100 µM
- GI50 [34]: > 21 µM
- TGI [34]: > 100 µM
- GI50 [35]: > 100 µM
- TGI [35]: > 100 µM
- GI50 [36]: 1.88 µM
- TGI [36]: > 57.8 µM
- GI50 [37]: > 65.3 µM
- TGI [37]: > 100 µM
- GI50 [38]: 13.6 µM
- TGI [38]: > 100 µM
- GI50 [39]: 0.47 µM
- TGI [39]: > 24 µM
- GI50 [40]: 0.746 µM
- TGI [40]: > 100 µM
- GI50 [41]: 0.576 µM
- TGI [41]: 3.9 µM
- GI50 [42]: 2.01 µM
- TGI [42]: > 25.5 µM
- GI50 [43]: 2.92 µM
- TGI [43]: > 100 µM
- GI50 [44]: 0.738 µM
- TGI [44]: 3.82 µM
- GI50 [45]: 10.5 µM
- TGI [45]: > 100 µM
- GI50 [46]: 0.611 µM
- TGI [46]: > 92.6 µM
- GI50 [47]: > 21.5 µM
- TGI [47]: > 100 µM
- GI50 [48]: 7.53 µM
- TGI [48]: > 100 µM
- GI50 [49]: 2.2 µM
- TGI [49]: > 100 µM
- GI50 [50]: 0.382 µM
- TGI [50]: > 100 µM
- GI50 [51]: 0.547 µM
- TGI [51]: > 100 µM
- GI50 [52]: 0.696 µM
- TGI [52]: 6.81 µM
- GI50 [53]: 0.654 µM
- TGI [53]: > 100 µM
- GI50 [54]: 0.898 µM
- TGI [54]: > 100 µM
- GI50 [55]: 0.216 µM
- TGI [55]: 0.661 µM
- GI50 [56]: 0.646 µM
- TGI [56]: > 100 µM
- GI50 [57]: > 30.6 µM
- TGI [57]: > 100 µM
